Measurements from patent US20070092942A1, “Ubiquitin specific enzymes of family herpesviridae” (priority 2005, published 2007).

Columns and labels:
UL36^USP = assay: Electrophilic probe labeling of HSV-1 infected HFF cell lysates, immunoblot; assay type: binding; details: for Labeling / reaction of UL36^USP by electrophilic probe: HSV-infected HFF lysates, immunoblot
Procedure: HFFs were infected with HSV-1 KOS at an MOI of 10 and harvested by trypsinolysis at the indicated times post infection. Cells were washed 1× in PBS and pelleted by centrifugation in a microcentrifuge at 3,000×g for 20 minutes at 4° C. Cells were lysed by adding 2× the pellet volume of NP40 lysis buffer (150 mM NaCl, 50 mM Tris pH 7.4, 5 mM MgCl2, 0.5 mM EDTA, 2 mM DTT, 2 mM ATP, 0.5% NP40) and rocking at 4° C. for 1 hour. Cell lysates were centrifuged at 12,000×g for 20 minutes at 4° C. Protein concentration of supernatants was established by Bradford assay and lysates were standardized to 5 μg/μl by the addition of the required volume of NP40 lysis buffer. For each labeling reaction, 50 μg of lysate was incubated with 0.8 μg of probe in a total volume of 60 μL of homogenization buffer (50 mM Tris pH 7.5, 5 mM MgCl2, 0.5 mM EDTA, 2 mM DTT, 2 mM ATP, 250 mM sucrose). For reactions involving NEM, lysates were incubated at room temperature for 30 minutes with 5 mM NEM prior to addition of probe. Reactions were incubated for 30 minutes at R.T. Samples were boiled in reducing sample buffer and separated by SDS-PAGE. Proteins were transferred to PVDF membranes and immunoblotted with mouse monoclonal anti-HA antibody (12CA5) at 1:4000 dilution followed by goat anti-mouse IgG-HRP (Southern Biotech) at 1: 10,000 dilution. Blots were developed using Western Lightning chemiluminescence reagent (Perkin Elmer).
To profile DUB activity during HSV-1 infection, we used HA-tagged Ub-vinylmethyl ester (HAUbVME) (Borodovsky et al., 2002). Human foreskin fibroblasts (HFFs) were infected with HSV-1 at a multiplicity of infection of 10, harvested at 4, 6, 9, 12, 22 and 30 hours post-infection (p.i.), and lysed.
To address whether UL36^USP labeling by HAUbVME was a consequence of the Ub or the VME moiety, we incubated lysates of HSV-infected HFFs at 24 hours p.i. with related electrophilic derivatives (Borodovsky et al., 2002). […] There are a number of Ub-like (UbL) proteins in eukaryotes (Larsen and Wang, 2002). This family of UbL proteins has diversified functionally to cover many cellular pathways: SUMO proteins function in nuclear signaling and transcription (Hay, 2005); ISG15 is an interferon-inducible gene product (Ritchie and Zhang, 2004); and the closest homolog of Ub, Nedd8, is an activator of the cullin family of E3 Ub ligases (Petroski and Deshaies, 2005; Willems et al., 2004). Probes derived from Ub and UbL modifiers target proteases that are either specific for a single Ub/UbL or selective for a limited number of these proteases (Borodovsky et al., 2002; Hemelaar et al., 2004). We explored the reactivity of UL36^USP with Ub and UbL-derived probes to determine its specificity. We incubated lysates of mock-infected and HSV-infected HFFs at 24 hours p.i. with either HAUbVME or with one of three UbL probes, HA-SUMO-1-VME, HA-ISG15-VME or FLAG-Nedd8-VS (FIG. 4B).

[1] = target: T1, EBV205 (AA 1-205 of EBV BPLF1) (Epstein-Barr virus, UniProt P03186); assay type: binding
T1 construct: encoding for AA 1-205 of EBV (EBV205) and AA 1-285 of mCMV (mCMV285); His-tag (pET28) (N); made in house; host or cells: E. coli BL21-DE3
Excerpt: (§1) To investigate functionality of this minimal DUB consensus domain we cloned the relevant genomic fragments for heterologous expression and subsequent biochemical characterization. The corresponding DNA fragments, encoding for AA 1-205 of EBV (EBV205) and AA 1-285 of mCMV (mCMV285), were PCR-cloned into pET28 according to standard procedures. Following expression in E. coli BL21-DE3, the fragments bearing a N-terminal His-tag were purified using a Ni-NTA resin (Qiagen) and subsequently subjected to a gel filtration column (S75 HiLoad, Amersham Pharmacia Biotech) equilibrated in storage buffer (50 mM Tris, 50 mM KCl, 50 mM NaCl, 0.5 mM EDTA, 2 mM DTT, 10% (v/v) glycerol, pH 7.5) to achieve apparent homogeneity. To address whether the purified constructs display DUB activity, we used HA-tagged Ub-vinylmethyl ester (HAUbVME), a probe that acts as suicide substrate for DUBs by forming a thioether bond to the active site cysteine. Reactions were performed using final concentrations of 1 μM enzyme (EBV205 or mCMV285) in the absence and presence of 2 μM HAUbVME in reaction buffer (50 mM Tris, 100 mM NaCl, 1 mM DTT pH 7.5) for 30 min at 37° C. Following incubation, samples were boiled in reducing sample buffer and subjected to SDS-PAGE.
(§2) In the case of mCMV, we also constructed a longer variant that terminates at position 575 (mCMV575).

[2] = system: mCMV285, mCMV575 (mCMV UL36 homologue); assay: HAUbVME labeling of purified recombinant mCMV285 / mCMV575, SDS-PAGE and immunoblot; assay type: binding, mouse cytomegalovirus
Excerpt: as §1, §2

EBV205 = target: T2, EBV205 (Epstein-Barr virus, UniProt P03186); assay type: biochemical; details: enzyme 100 pM, Ub-AMC 100 nM
T2 construct: encoding for AA 1-205 of EBV (EBV205) and AA 1-285 of mCMV (mCMV285); His-tag (pET28) (N); made in house; host or cells: E. coli BL21-DE3
Procedure: (§3) We next tested the ability of the enzymes to cleave Ub-AMC (Ub C-terminal 7-amido-4-methylcoumarin, Boston Biochem). UbAMC hydrolysis assays were performed in reaction buffer supplemented with BSA (50 μg/ml) by incubating the enzymes (100 pM) with a large excess of Ub-AMC (100 nM). […] To address this issue, we tested the potential of several inhibitors to block DUB activity in Ub-AMC hydrolysis assays. Enzymes were preincubated for 1 h with a 100-fold molar excess of electrophilic derivatives of Ub, SUMO, NEDD8, and ISG15, all carrying a VME moiety as the electrophile at their C-terminus.

mCMV285, mCMV575 = assay: UbAMC hydrolysis assay with mCMV285 and mCMV575; assay type: biochemical, mouse cytomegalovirus; details: enzyme 100 pM, Ub-AMC 100 nM
Procedure: as §3

His6UL36^USP = target: T3, His6UL36^USP (Human herpesvirus 1, UniProt P10220); assay: Cleavage of Ub-AMC by recombinant UL36^USP; assay type: biochemical, HSV-1; details: 10 pmol inhibitor pre-incubated 30 minutes with ~0.1 pmol enzyme
T3 construct: amino acids 1 to 533 of the UL36 gene product from HHV HSV1; 6-His (pET-28a(+)) (N); 6-His (pET-28a(+)) (C); made in house; host or cells: E. coli BL21 or BL21 RIPL
Procedure: Recombinant UL36^USP and UL36^USP/C65A (˜0.1 pmol) were incubated in 125 μl kinetics buffer (50 mM HEPES, pH 7.5, 0.5 mM EDTA) supplemented with 1 mM DTT at room temperature for 10 minutes. To this was added 75 μl of Ub-AMC (250 nM in kinetics buffer) and AMC liberation was measured at 25° C. For inhibition experiments, one of UbVME, SUMO-VME, ISG15-VS, or Nedd8-VS (10 pmol) was incubated with recombinant UL36^USP (˜0.1 pmol) for 30 minutes at room temperature. To this was added 75 μl of Ub-AMC (250 nM in kinetics buffer) and AMC liberation was measured. Cleavage experiments were performed in triplicate. All fluorescence measurements were made using a Wallac Victor^3 1420 fluorescence/luminescence plate reader (Perkin Elmer) using 380 nm excitation and 460 nm emission wavelengths, with 5 second intervals between measurements. Data were exported as an Excel file and plotted as mean values of replicate experiments using Kaleidagraph v3.6 (Synergy Software).
In a typical eukaryotic cell, the presence of multiple DUBs, whose substrate pool and catalytic activities may overlap, confounds straightforward analysis of the activity of any one particular DUB. Although we have found excellent correlation between labeling of polypeptides with the Ub/UbL probes and their identification as active DUBs, the probes are covalent inactivators and cannot be used to assess enzymatic (i.e. catalytic) peptidase activity. To validate the activity of UL36^USP as a protease with specificity for Ub-modified substrates, we cloned a sequence spanning the 533 N-terminal amino acids of HSV-1 UL36^USP into a His-tagged expression vector (His6-UL36^USP). We also generated a point mutant of this construct in which the active site cysteine residue, Cys^65, was replaced by alanine (His6UL36^USP/C65A). The proteins were expressed, purified over Ni-NTA resin and evaluated for their ability to cleave Ub C-terminal 7-amido-4-methylcoumarin (Ub-AMC) (Dang et al., 1998). […] The results are consistent with the labeling experiments using UbL probes with HSV-1-infected lysates (FIG. 4B).

[3] = pretreatment with 10 mM NEM for 10 min
[4] = 1 μM enzyme, 2 μM HAUbVME, 30 min at 37° C.
[5] = preincubated 1 h with 100-fold molar excess of inhibitor

Which results are given for `CCN1C(=O)C=CC1=O` [NEM, N-ethylmaleimide]?
Effect on labeling of the 57 kDa polypeptide with HAUbVME (UL36^USP; HSV-1 infected HFF lysates, 5 mM NEM 30 minutes prior to probe): inhibited; Effect on labeling of EBV205 with HAUbVME probe [1, 3]: completely blocked labeling; Effect on reaction of mCMV575 with HAUbVME ([2]; mCMV575 variant): NEM-sensitive; Effect on labeling of mCMV285 with HAUbVME probe [2, 3]: completely blocked labeling; Sensitivity of UbAMC hydrolysis by EBV205 to NEM (EBV205): sensitive to NEM; Sensitivity of UbAMC hydrolysis by mCMV285 / mCMV575 to NEM (mCMV285, mCMV575): sensitive to NEM

How did the “Labeling / reaction of UL36^USP by electrophilic probe” value (“Labeling / reaction of UL36^USP” below) (UL36^USP) turn out when “FLAG-Nedd8-VS: UbL probe (9.7 kDa), FLAG-tagged Nedd8 vinylsulfone” was run?
The value was “did not observe reaction”.

For “HA-ISG15-VME: UbL probe (18.8 kDa), HA-tagged ISG15 vinylmethyl ester”, which “Labeling / reaction of UL36^USP” value (UL36^USP) is on record?
The value was “did not observe reaction”.

For “HA-SUMO-1-VME: UbL probe (12.8 kDa), HA-tagged SUMO-1 vinylmethyl ester”, which “Labeling / reaction of UL36^USP” value (UL36^USP) is on record?
Its value is “did not observe reaction”.

With “HAUbVME: HA-tagged Ub-vinylmethyl ester, electrophilic Ub probe forming thioether bond to DUB active site cysteine” as the compound, how does the “Labeling / reaction of UL36^USP” value (UL36^USP) read?
Its value is “observed labeling”.

What about the “Covalent modification of EBV205 by probe (shift in electrophoretic mobility)” value [1, 4] of the same compound?
Its value is “covalent modification”.

And the “Covalent modification of mCMV285 by probe (shift in electrophoretic mobility)” value [2, 4]?
The value was “covalent modification”.

Which “Labeling / reaction of UL36^USP” value (UL36^USP) does the source give for “HAUbVS: HAUb-vinylsulfone, Ub-derived electrophilic probe” here?
The value was “comparably robust labeling”.

“ISG15-VS: electrophilic ISG15 derivative used as inhibitor” was tested. Which “Inhibition of Ub-AMC cleavage by His6UL36^USP” value (“Inhibition of Ub-AMC cleavage” for short) (His6UL36^USP) did it give?
Its value is “rates nearly identical to hydrolysis in the absence of these inhibitors”.

“Nedd8-VS: electrophilic Nedd8 vinylsulfone derivative used as inhibitor” was tested. Which “Inhibition of Ub-AMC cleavage” value (His6UL36^USP) did it give?
The value was “rates nearly identical to hydrolysis in the absence of these inhibitors”.

How did the “Inhibition of Ub-AMC cleavage” value (His6UL36^USP) turn out when “SUMO-1-VS: electrophilic SUMO-1 derivative used as inhibitor” was run?
The value was “rates nearly identical to hydrolysis in the absence of these inhibitors”.

With “UbVME: electrophilic derivative of Ub carrying a VME moiety at its C-terminus, covalent DUB inhibitor” as the compound, how does the “Inhibition of Ub-AMC cleavage” value (His6UL36^USP) read?
Its value is “complete inhibition”.

And the “Inhibition of UbAMC hydrolytic activity of EBV205” value (EBV205; [5])?
Its value is “completely inhibited”.

What about the “Inhibition of UbAMC hydrolytic activity of mCMV285 / mCMV575” value (mCMV285, mCMV575; [5]) of the same compound?
The value was “completely inhibited”.
